For this assay, the target named is T1, human zDHHC3 (Homo sapiens, UniProt Q9NYG2).
T1 construct: expressed in transfected cells; host or cells: HEK293T
T1 sequence (Q9NYG2 1-299): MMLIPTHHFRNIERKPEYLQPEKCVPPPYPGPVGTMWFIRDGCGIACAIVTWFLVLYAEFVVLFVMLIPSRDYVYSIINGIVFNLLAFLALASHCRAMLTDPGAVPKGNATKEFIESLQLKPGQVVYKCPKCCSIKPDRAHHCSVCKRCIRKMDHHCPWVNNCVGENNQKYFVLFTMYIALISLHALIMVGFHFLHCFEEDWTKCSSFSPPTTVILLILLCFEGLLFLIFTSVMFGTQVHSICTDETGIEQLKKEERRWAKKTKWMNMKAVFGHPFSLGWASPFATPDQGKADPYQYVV
The experiment in a line: PSD95-mCHERRY S-acylation in HEK293T cells co-expressing zDHHC3. Format: cell-based. The conditions noted are these: 25 μM. The source says:
PSD95 (postsynaptic density protein 95) is a major S-acylated protein that has a critical role in the maturation of excitatory neurons and in synaptic plasticity ([46], [47]). PSD95 can be S-acylated by zDHHC2, zDHHC3, zDHHC7, and zDHHC15 ([6]). […] We therefore tested the effects of TTZ-1 and TTZ-2 on the S-acylation of PSD95 mediated by zDHHC2, zDHHC3, zDHHC7, and zDHHC15. […] In contrast, zDHHC3 and zDHHC7 activities toward PSD95 were unaffected by TTZ-1 and TTZ-2, mirroring the data obtained with GFP-SNAP25 as a substrate.
Figure 9 Activity of TTZ-1 and TTZ-2 against PSD95 S-acylation mediated by human zDHHC2, zDHHC3, zDHHC7, and zDHHC15 expressed in mammalian cells. HEK293T cells were transfected with a plasmid encoding PSD95-mCHERRY together with either a control plasmid pEF-BOS-HA (pEF) or a plasmid encoding either HA-tagged human zDHHC2 (zD2), zDHHC3 (zD3), zDHHC7 (zD7), or zDHHC15 (zD15) for 24 h. Cells were then preincubated for 4 h with TTZ-1 or TTZ-2 (25 μM final) or DMSO control before metabolic labeling with 100 μM C16:0-azide for 4 h. Cells were lysed, and proteins having incorporated C16:0-azide were labeled by click chemistry with an alkyne-IR800 dye. […] The data were quantified, and the graphs below each set of membranes show mean ± SEM of normalized S-acylation of PSD95-mCHERRY (click signal/RFP signal). […]

With `O=C(Nc1cccc2c1OC(c1nnn[nH]1)CN2)c1ccc(OCCCCc2ccccc2)cc1` (centres unmarked) [TTZ-2, N-(2-(1H-Tetrazol-5-yl)-3,4-dihydro-2H-benzo[b][1,4]oxazin-8-yl)-4-(4-phenylbutoxy)benzamide], the “PSD95-mCHERRY S-acylation by zDHHC3” value is “unaffected”. `CCCCCCCOc1ccc(C(=O)Nc2cccc3c2OC(c2nnn[nH]2)CN3)cc1` (centres unmarked) [TTZ-1, N-(2-(1H-Tetrazol-5-yl)-3,4-dihydro-2H-benzo[b][1,4]oxazin-8-yl)-4-(heptyloxy)benzamide]: the “PSD95-mCHERRY S-acylation by zDHHC3” value was “unaffected”.

The record behind these values is publication PMC9558053, “Development of a novel high-throughput screen for the identification of new inhibitors of protein S-acylation” (The Journal of Biological Chemistry, 2022).
